Columns and labels:
Assay type in all cases: in vivo
[1] = system: Ivyleaf morningglory (Ipomoea hederacea); assay: Test Example 4: soil surface treatment, herbicidal activity; details: sprayed over the surface of the soil, 2000 g/ha, 7 days after application
Text: (§1) A cylindrical plastic pot having a diameter of 10 cm and a depth of 10 cm was filled with soil and then seeded with Ivyleaf morningglory (Ipomoea hederacea), velvetleaf (Abutilon theophrasti), barnyardgrass (Echinochloa crus-galli) and blackgrass (Alopecurus myosuroides). Then, each of the compounds 3-2,3-11, 3-12, 3-16, 3-20 and 3-198 was formulated into an emulsifiable concentrate according to Formulation Example 2 and then diluted to the prescribed amount with water, and the dilution was uniformly sprayed over the surface of the soil with a sprayer at a rate of 1000 liters per hectare. After the application, the test plants were grown in the greenhouse for 7 days, and the herbicidal activity of the applied composition was examined.

[2] = system: velvetleaf (Abutilon theophrasti); assay: as above; details: sprayed over the surface of the soil, 2000 g/ha, 7 days after application
Text: as §1

[3] = system: barnyardgrass (Echinochloa crus-galli); assay: as above; details: sprayed over the surface of the soil, 2000 g/ha, 7 days after application
Text: as §1

[4] = system: blackgrass (Alopecurus myosuroides); assay: as above; details: sprayed over the surface of the soil, 2000 g/ha, 7 days after application
Text: as §1

[5] = system: Ivyleaf morningglory (Ipomoea hederacea); assay: Test Example 3: foliar treatment, herbicidal activity; details: foliar spray, 500 g/ha, 7 days after application
Protocol: (§2) A cylindrical plastic pot having a diameter of 10 cm and a depth of 10 cm was filled with soil and then seeded with Ivyleaf morningglory (Ipomoea hederacea), velvetleaf (Abutilon theophrasti) and barnyardgrass (Echinochloa crus-galli). These test plants were grown in a greenhouse for 9 days. After then, each of the compounds 3-16, 3-20 and 3-198 was formulated into an emulsifiable concentrate according to Formulation Example 2 and then diluted to the prescribed amount with water containing a spreading agent and the dilution was uniformly sprayed over the foliage of the test plants with a sprayer at a rate of 1000 liters per hectare. After the application, the test plants were grown in the greenhouse for 7 days, and the herbicidal activity was examined.

[6] = system: velvetleaf (Abutilon theophrasti); assay: as above; details: foliar spray, 500 g/ha, 7 days after application
Protocol: as §2

[7] = system: barnyardgrass (Echinochloa crus-galli); assay: as above; details: foliar spray, 500 g/ha, 7 days after application
Protocol: as §2

[8] = system: common chickweed (Stellaria media); assay: Test Example 5: foliar treatment, herbicidal activity index; parameters: key: 0: no or little difference in the degree of germination or growth between the treated and the untreated tested plants at the time of examination; 10: the test plants died complete or their germination or growth was completely inhibited; details: foliar spray, 10 g/ha, 9 days after application, index 0 to 10
Protocol: A cylindrical plastic pot having a diameter of 18.5 cm and a depth of 15 cm was filled with soil and then seeded with common chickweed (Stellaria media). These test plants were grown in a greenhouse for 29 days. After then, each of the compound 1-2 and Compound A was formulated into an emulsifiable concentrate according to Formulation Example 2 and then diluted to the prescribed amount with water containing a spreading agent and the dilution was uniformly sprayed over the foliage of the test plants with a sprayer at a rate of 1000 liters per hectare. After the application, the test plants were grown in the greenhouse for 9 days, and the herbicidal activity was examined.

[9] = system: Ivyleaf morningglory (Ipomoea hederacea); assay: Test Example 2: soil surface treatment, herbicidal activity; details: sprayed over the surface of the soil, 500 g/ha, 7 days after application
Text: as §1, with “theophrasti) and” for “theophrasti),”, “crus-galli).” for “crus-galli) and blackgrass (Alopecurus myosuroides).”, “1-1,2-1” for “3-2,3-11, 3-12, 3-16, 3-20”, “3-1” for “3-198”

[10] = system: velvetleaf (Abutilon theophrasti); assay: as above; details: sprayed over the surface of the soil, 500 g/ha, 7 days after application
Text: as §1, with “theophrasti) and” for “theophrasti),”, “crus-galli).” for “crus-galli) and blackgrass (Alopecurus myosuroides).”, “1-1,2-1” for “3-2,3-11, 3-12, 3-16, 3-20”, “3-1” for “3-198”

[11] = system: barnyardgrass (Echinochloa crus-galli); assay: as above; details: sprayed over the surface of the soil, 500 g/ha, 7 days after application
Text: as §1, with “theophrasti) and” for “theophrasti),”, “crus-galli).” for “crus-galli) and blackgrass (Alopecurus myosuroides).”, “1-1,2-1” for “3-2,3-11, 3-12, 3-16, 3-20”, “3-1” for “3-198”

[12] = system: Ivyleaf morningglory (Ipomoea hederacea); assay: Test Example 1: foliar treatment, herbicidal activity; details: foliar spray, 125 g/ha, 7 days after application
Protocol: (§3) A cylindrical plastic pot having a diameter of 10 cm and a depth of 10 cm was filled with soil and then seeded with Ivyleaf morningglory (Ipomoea hederacea), velvetleaf (Abutilon theophrasti), barnyardgrass (Echinochloa crus-galli) and blackgrass (Alopecurus myosuroides). These test plants were grown in a greenhouse for 9 days. Then, each of compounds 1-1,2-1, 3-1,3-2, 3-11 and 3-12 was formulated into an emulsifiable concentrate according to Formulation Example 2 and then diluted to the prescribed amount with water containing a spreading agent and the dilution was uniformly sprayed over the foliage of the test plants with a sprayer at a rate of 1000 liters per hectare After the application, the test plants were grown in the greenhouse for 7 days, and the herbicidal activity of the applied composition was determined.

[13] = system: velvetleaf (Abutilon theophrasti); assay: as above; details: foliar spray, 125 g/ha, 7 days after application
Protocol: as §3

[14] = system: barnyardgrass (Echinochloa crus-galli); assay: as above; details: foliar spray, 125 g/ha, 7 days after application
Protocol: as §3

[15] = system: blackgrass (Alopecurus myosuroides); assay: as above; details: foliar spray, 125 g/ha, 7 days after application
Protocol: as §3

Compound: C=CCOC(=O)COc1ccccc1Oc1cc(-n2c(=O)cc(C(F)(F)F)n(C)c2=O)c(F)cc1Cl [Compound 3-20, allyl [2-{2-chloro-4-fluoro-5-[3-methyl-2,6-dioxo-4-(trifluoromethyl)-1,2,3,6-tetrahydropyrimidin-1-yl]phenoxy}phenoxy]acetate]
- emergence of Ivyleaf morningglory [1]: completely controlled
- emergence of velvetleaf [2]: completely controlled
- emergence of barnyardgrass [3]: completely controlled
- emergence of blackgrass [4]: completely controlled
- growth of Ivyleaf morningglory [5]: completely controlled
- growth of velvetleaf [6]: completely controlled
- growth of barnyardgrass [7]: completely controlled

Compound: Cn1c(C(F)(F)F)cc(=O)n(-c2cc(Oc3ccccc3OCC(=O)OC(C)(C)C)c(Cl)cc2F)c1=O [Compound 3-16]
- emergence of Ivyleaf morningglory [1]: completely controlled
- emergence of velvetleaf [2]: completely controlled
- emergence of barnyardgrass [3]: completely controlled
- emergence of blackgrass [4]: completely controlled
- growth of Ivyleaf morningglory [5]: completely controlled
- growth of velvetleaf [6]: completely controlled
- growth of barnyardgrass [7]: completely controlled

Compound: CC(C)COC(=O)COc1ccccc1Oc1cc(-n2c(=O)cc(C(F)(F)F)n(C)c2=O)c(F)cc1Cl [Compound 3-198, isobutyl [2-{2-chloro-4-fluoro-5-[3-methyl-2,6-dioxo-4-(trifluoromethyl)-1,2,3,6-tetrahydropyrimidin-1-yl]phenoxy}phenoxy]acetate]
- emergence of Ivyleaf morningglory [1]: completely controlled
- emergence of velvetleaf [2]: completely controlled
- emergence of barnyardgrass [3]: completely controlled
- emergence of blackgrass [4]: completely controlled
- growth of Ivyleaf morningglory [5]: completely controlled
- growth of velvetleaf [6]: completely controlled
- growth of barnyardgrass [7]: completely controlled

Compound: CCOC(=O)C(C)Oc1ccc(Oc2cc(-n3c(=O)cc(C(F)(F)F)n(C)c3=O)c(F)cc2Cl)cc1 (stereo not drawn) [Compound 1-2, ethyl 2-[4-{2-chloro-4-fluoro-5-[3-methyl-2,6-dioxo-4-(trifluoromethyl)-1,2,3,6-tetrahydropyrimidin-1-yl]phenoxy}phenoxy]propionate]
- Herbicidal activity [8]: 10

Compound: COC(=O)C(C)Oc1ccccc1Oc1cc(-n2c(=O)cc(C(F)(F)F)n(C)c2=O)c(F)cc1Cl (stereo not drawn) [Compound 3-1, methyl 2-[2-{2-chloro-4-fluoro-5-[3-methyl-2,6-dioxo-4-(trifluoromethyl)-1,2,3,6-tetrahydropyrimidin-1-yl]phenoxy}phenoxy]propionate]
- emergence of Ivyleaf morningglory [9]: completely controlled
- emergence of velvetleaf [10]: completely controlled
- emergence of barnyardgrass [11]: completely controlled
- growth of Ivyleaf morningglory [12]: completely controlled
- growth of velvetleaf [13]: completely controlled
- growth of barnyardgrass [14]: completely controlled
- growth of blackgrass [15]: completely controlled

Compound: CCOC(=O)C(C)Oc1ccc(Oc2cc(-n3c(=O)cc(C(F)(F)F)n(N)c3=O)c(F)cc2Cl)cc1 (stereo not drawn) [Compound A, reference compound]
- Herbicidal activity [8]: 5

Reference: patent US6667413B2, “Uracil compounds and use thereof” (Sumitomo Chemical Company, Limited, priority 1999, dated 2003)
